Experimental data published in article PMC12379159 (Journal of Natural Products, 2025).
Positions count from the first letter of the chain named. Like-named read-outs stand apart in the source and are kept apart here.

How the values were obtained:
RORγ = tested on: RORγ; design: method as in numbers not given; conditions: Figure 4, collected from the literature; ref numbers not given; cited from earlier work
Gal4-hRORγ = biological target: T1, Gal4-hRORγ (Homo sapiens, UniProt P51449); assay: Gal4-RORγ mammalian one-hybrid luciferase assay; type: cell-based; conditions: HEK293 cells; for IC50: 18 h treatment, up to 5 μM
T1 construct: Encodes for a hRORγ-LBD:Gal4-DBD fusion protein; expressed in transfected cells; host or cells: HEK293
T1 sequence (P51449 269-508 limits assumed): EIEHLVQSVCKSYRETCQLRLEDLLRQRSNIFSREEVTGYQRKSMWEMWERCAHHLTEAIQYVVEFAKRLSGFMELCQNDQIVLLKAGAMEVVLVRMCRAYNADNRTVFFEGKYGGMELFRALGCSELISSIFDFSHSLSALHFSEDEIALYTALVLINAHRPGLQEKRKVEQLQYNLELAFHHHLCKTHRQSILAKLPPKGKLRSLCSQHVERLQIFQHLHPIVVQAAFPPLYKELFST
Description: (§1) For luciferase assays, 8 × 10^6 HEK293 cells were seeded on 150 mm cell culture dishes and incubated for 5 h. Afterward, cells were transfected with the calcium phosphate coprecipitation method using 5 μg of the nuclear receptor (Gal4-hRORγ or full-length human RORγ), 5 μg of a luciferase reporter (pTK-MH100 × 4-LUC for Gal4-hRORγ experiments or RORE-LUC for full-length human RORγ experiments) and 3 μg eGFP-N1 (for assessing transfection efficiency) plasmid DNA and incubated overnight. […] The medium was changed the following day, and cells were further incubated for another four to 5 h before trypsin/EDTA was added to detach them from the dishes. […] RLUs were normalized to relative fluorescence units (RFU) to account for differences in cell number and transfection efficiency and then normalized to the vehicle control. Results are expressed as fold activation relative to the vehicle control.
(§2) Concentration–response data were analyzed in GraphPad Prism version 10 by three-parameter logistic nonlinear regression, with the Hill slope constrained to a theoretical value of −1.0. An IC50 value was determined only for compounds yielding a statistically reliable fit. […] In these cases, only the maximal inhibition achieved at the highest tested concentration (I max(%) at 5 μM) is reported, calculated as follows: Imax(%)=(1−Bottom/Top)×100 (“top” = baseline activity measured at the lowest concentration, “bottom” = residual activity observed at the highest concentration, corresponding to the maximal inhibitory effect).

full-length human RORγ = biological target: T2, full-length human RORγ (Homo sapiens, UniProt P51449); assay: Full-length RORγ luciferase assay (RORE-LUC reporter); type: cell-based
T2 construct: Encodes for the full-length human RORγ; expressed in transfected cells; host or cells: HEK293
T2 sequence (P51449 1-518): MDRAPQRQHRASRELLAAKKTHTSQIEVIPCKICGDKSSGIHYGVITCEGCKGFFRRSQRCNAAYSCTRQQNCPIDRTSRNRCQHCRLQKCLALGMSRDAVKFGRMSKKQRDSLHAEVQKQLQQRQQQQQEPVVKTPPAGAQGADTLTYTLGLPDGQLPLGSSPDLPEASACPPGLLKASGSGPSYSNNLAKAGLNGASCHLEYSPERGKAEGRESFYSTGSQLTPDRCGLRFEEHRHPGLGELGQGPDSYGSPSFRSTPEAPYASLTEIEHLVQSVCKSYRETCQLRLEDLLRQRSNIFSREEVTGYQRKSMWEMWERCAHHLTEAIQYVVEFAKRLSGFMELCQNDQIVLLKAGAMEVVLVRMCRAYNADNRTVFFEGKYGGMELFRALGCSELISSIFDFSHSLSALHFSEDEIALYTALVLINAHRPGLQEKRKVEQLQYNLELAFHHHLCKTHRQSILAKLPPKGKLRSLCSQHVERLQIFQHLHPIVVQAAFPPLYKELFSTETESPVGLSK
Description: as §1, §2

hRORγ LBD = biological target: T3, hRORγ LBD (Homo sapiens, UniProt P51449); assay: Thermal stability by nano differential scanning fluorimetry (nanoDSF); type: binding; conditions: RORγ-LBD with 4 equiv ligand vs without ligand; mean ± SD
T3 construct: His tag (N, cleaved yes); made in house; host or cells: Escherichia coli BL21 DE3
T3 sequence (P51449 264-518): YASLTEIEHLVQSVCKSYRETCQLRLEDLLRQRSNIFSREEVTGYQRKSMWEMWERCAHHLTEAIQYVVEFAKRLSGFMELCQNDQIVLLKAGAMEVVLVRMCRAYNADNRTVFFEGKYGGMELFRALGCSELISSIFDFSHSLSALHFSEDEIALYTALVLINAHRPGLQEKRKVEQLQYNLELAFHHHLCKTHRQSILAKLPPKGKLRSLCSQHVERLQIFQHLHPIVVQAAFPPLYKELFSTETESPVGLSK
Description: Soluble proteins were purified on Ni Hitrap FFcrude column (Cytiva), followed by His tag removal by thrombin (MP Biomedicals) cleavage and by size exclusion chromatography on HiLoad Superdex200 column (Cytiva) equilibrated in 20 mM Tris-HCl pH 7.5, 150 mM NaCl, 1 mM TCEP (Hampton Research). Purity and homogeneity of the hRORγ LBD were assessed by SDS-PAGE. The purified protein was concentrated to 0.5–1.0 mg/mL with an Amicon Ultra 10 kDa MWCO. The aliquots of purified LBD were incubated with 4 equiv ligands or vehicle for thermal stability experiments.
Fluorescence-based thermal experiments were performed using a Prometheus NT.48 (NanoTemper Technologies, Germany) with grade standard capillaries containing 10 μL of RORγLBD with different ligands. […] NanoTemper PR. Stability Analysis v1.0.2 was used to fit the data and determine the melting temperatures Tm.

[1] = tested on: Il17a and Il17f (Il17a/f); assay: RT-qPCR of Il17a and Il17f in EL-4-mRORγt cells; type: cell-based, murine; conditions: then 4.5-h PMA and ionomycin
Description: For RT-qPCR assays, 5 × 10^5 EL-4-mRORγt cells were seeded in 500 μL complete DMEM per well of a 24-well plate and treated with the vehicle control, the positive control, or the compounds of interest. After incubation for 20–24 h, cells were stimulated with Cell Activation Cocktail (PMA: 40.5 μM, ionomycin: 669.3 μM; 500X) for 4.5 h. Afterward, total RNA was isolated using the innuPREP RNA Mini Kit 2.0 according to the manufacturer’s instructions. According to the manufacturer’s instructions, 1 μg RNA was reverse-transcribed into cDNA using the High-Capacity cDNA Reverse Transcription Kit. RT-qPCR was performed using the Luna Universal qPCR Master Mix on a LightCycler 480 (Roche Diagnostics, Rotkreuz, Switzerland) according to the manufacturer’s instructions. […] Livak’s 2−ΔΔCt method was employed to determine the expression levels of RORγ target genes. This involved normalizing the target gene expression to the expression levels of the control gene 18s, followed by further normalization to the vehicle control.

Gal4-RORγ H479L = biological target: T4, Gal4-RORγ H479L (Homo sapiens, UniProt P51449, H479L); assay: Gal4-RORγ H479L mutant luciferase assay; conditions: 5 μM
T4 sequence (P51449 269-508 H479L limits assumed): T1 sequence (P51449 269-508 limits assumed) with H211L
Description: Gal4-hRORγ H323A and H479L mutants were generated using the QuikChange Lightning Site-Directed Mutagenesis Kit according to the manufacturer’s instructions. Briefly, 10 ng template DNA (Gal4-hRORγ) was PCR-amplified with the respective mutagenic forward and reverse primers listed in Table S3, which were designed using the QuikChange Primer Design tool (https://www.agilent.com/store/primerDesignProgram.jsp). […] Two μL of the PCR product were then transformed into XL1-Blue competent E. coli according to a protocol provided by NEB. […] After centrifuging the main culture at 5691g for 10 min, the supernatant was decanted, and plasmid preparation was performed using the PureLink HiPure Plasmid Midiprep Kit according to the manufacturer’s instructions. DNA yields and purities were checked using a NanoDrop 2000c (Thermo Fisher Scientific, Waltham, MA, USA).

[2] = pretreated 20–24 h at indicated concentrations

SMILES: CC(C)=CCC[C@H](C)[C@H]1CC[C@H]2C3=C(CC[C@]12C)[C@@]1(C)CC[C@H](O)[C@@](C)(C(=O)O)C1CC3 (stereo partly drawn) [4α-carboxy-4β-methyl-zymosterol]
- RORγ inverse agonist or agonist (RORγ): Agonist

SMILES: C=C(C)[C@@H]1CC[C@]2(C=O)CC[C@]3(C)[C@H](CC[C@@H]4[C@@]5(C)CC[C@H](O)C(C)(C)[C@@H]5CC[C@]43C)[C@@H]12 [Betulinaldehyde]
- RORγ inverse agonist or agonist (RORγ): Agonist

SMILES: COc1ccc(CC(=O)Nc2cc3oc4ccccc4c3cc2OC)cc1 [Compound 5]
- Activity in Gal4-RORγ luciferase assay (initial screen) (Gal4-hRORγ; 3 μM): agonistic activity

SMILES: C=C(C)[C@@H]1CC[C@]2(C(=O)O)CC[C@]3(C)[C@H](CC[C@@H]4[C@@]5(C)C/C(=C\c6ccccc6OC)C(=O)C(C)(C)[C@@H]5CC[C@]43C)[C@@H]12 [Compound 15.1]
- Imax(%) at 5 μM, Gal4-RORγ luciferase assay (Gal4-hRORγ): 34%
- Imax(%) at 5 μM, full-length RORγ luciferase assay (full-length human RORγ; HEK293 cells): 24%
- ΔTm measured with nano differential scanning fluorimetry (hRORγ LBD): 5.9 ± 0.4 °C
- Il17a/f expression [1, 2]: inactive

SMILES: C=C(C)[C@@H]1CC[C@]2(C(=O)O)CC[C@]3(C)[C@H](CC[C@@H]4[C@@]5(C)C/C(=C/c6cccc(I)c6)C(=O)C(C)(C)[C@@H]5CC[C@]43C)[C@@H]12 [Compound 15.2]
- Imax(%) at 5 μM, Gal4-RORγ luciferase assay (Gal4-hRORγ): 58%
- IC50 (Gal4-hRORγ): 3.1 µM
- Imax(%) at 5 μM, full-length RORγ luciferase assay (full-length human RORγ; HEK293 cells): 55%
- Activity on Gal4-RORγ H479L vs WT (Gal4-RORγ H479L): loss of activity
- ΔTm measured with nano differential scanning fluorimetry (hRORγ LBD): 2.2 ± 0.5 °C
- Il17a/f expression [1, 2]: significant and concentration-dependent reduction

SMILES: C=C(C)[C@@H]1CC[C@]2(C(=O)O)CC[C@]3(C)[C@H](CC[C@@H]4[C@@]5(C)C/C(=C/c6ccccc6)C(=O)C(C)(C)[C@@H]5CC[C@]43C)[C@@H]12 [Compound 15.3]
- Imax(%) at 5 μM, Gal4-RORγ luciferase assay (Gal4-hRORγ): 53%
- IC50 (Gal4-hRORγ): 2.7 µM
- Imax(%) at 5 μM, full-length RORγ luciferase assay (full-length human RORγ; HEK293 cells): 67%
- IC50 (full-length human RORγ; HEK293 cells, 18 h treatment, up to 5 μM, read-out: IC50, full-length RORγ luciferase assay): > 5 µM
- IC50 (full-length human RORγ; exceeds the highest concentration tested, only an estimate, read-out: Estimated IC50, full-length RORγ luciferase assay): 5.7 µM
- Activity on Gal4-RORγ H479L vs WT (Gal4-RORγ H479L): loss of activity
- ΔTm measured with nano differential scanning fluorimetry (hRORγ LBD): 2.8 ± 0.2 °C
- Il17a/f expression [1, 2]: significant and concentration-dependent reduction

SMILES: C=C(C)[C@@H]1CC[C@]2(C(=O)OC)CC[C@]3(C)[C@H](CC[C@@H]4[C@@]5(C)C/C(=C/c6ccco6)C(=O)C(C)(C)[C@@H]5CC[C@]43C)[C@@H]12 [Compound 15.4]
- Imax(%) at 5 μM, Gal4-RORγ luciferase assay (Gal4-hRORγ): 0%
- Imax(%) at 5 μM, full-length RORγ luciferase assay (full-length human RORγ; HEK293 cells): 0%
- Activity on Gal4-RORγ H479L vs WT (Gal4-RORγ H479L): remained inactive
- ΔTm measured with nano differential scanning fluorimetry (hRORγ LBD): 1.1 ± 0.2 °C
- Il17a/f expression [1, 2]: slightly but significantly up-regulated

SMILES: C=C(C)[C@@H]1CC[C@]2(C(=O)NCCCN(C)C)CC[C@]3(C)[C@H](CC[C@@H]4[C@@]5(C)CC[C@H](O)C(C)(C)[C@@H]5CC[C@]43C)[C@@H]12 [Compound 24]
- RORγ inverse agonist or agonist (RORγ): Inverse agonist

SMILES: C=C1C[C@]2(C)[C@H]3CC[C@@H]4[C@H]5[C@H](C(=C)C)CC[C@]5(C(=O)NCCCN(C)C)CC[C@@]4(C)[C@]3(C)CC[C@H]2C(C)(C)C1=O [Compound 25]
- RORγ inverse agonist or agonist (RORγ): Inverse agonist

SMILES: C[C@@H]1CC[C@@]2(OC1)O[C@H]1C[C@H]3[C@@H]4CC=C5C[C@@H](O)CC[C@]5(C)[C@H]4CC[C@]3(C)[C@H]1[C@@H]2C [Diosgenin]
- RORγ inverse agonist or agonist (RORγ): Inverse agonist

SMILES: CC(C)CCC[C@H](CCCC(C)(C)O)[C@H]1CC[C@H]2[C@@H]3CC=C4C[C@@H](O)CC[C@]4(C)[C@H]3CC[C@]12C [Gemini-cholesterol analogue]
- RORγ inverse agonist or agonist (RORγ): Inverse agonist

SMILES: OC(c1ccc(-c2ccc(CN3CCN(Cc4ccncc4)CC3)cc2)c(F)c1)(C(F)(F)F)C(F)(F)F [SR2211, reference compound]
- Il17a/f expression ([1]; 5 μM, 20–24 h): significant and reproducible down-regulation

SMILES: C[C@H]1[C@H](C)CC[C@]2(C(=O)O)CC[C@]3(C)C(=CC[C@@H]4[C@@]5(C)CC[C@H](O)C(C)(C)[C@@H]5CC[C@]43C)[C@H]12 [Ursolic acid]
- RORγ inverse agonist or agonist (RORγ): Inverse agonist

SMILES: C[C@H]1[C@H](C)CC[C@]2(C(=O)O)CC[C@]3(C)C(=CC[C@@H]4[C@@]5(C)CCC(=O)C(C)(C)[C@@H]5CC[C@]43C)[C@H]12 [Ursonic acid]
- RORγ inverse agonist or agonist (RORγ): Inverse agonist
